The text below walks through data of US7429482B2, “Screening tools for discovery of novel anabolic agents” (United States of America as represented by the Department …, priority 2005, dated 2008).

The test system of one experiment is MAFbx. In words: Acute denervation: MAFbx mRNA in EDL and soleus (qPCR). Format: in vivo, rat. The note with it: nandrolone 1.5 mg/kg/wk 14 days. How it is done: (§1) Male Wistar rats weighing 250 gm (Taconic Farms, Germantown, N.Y.) were provided food and water ad libitum and were housed in a temperature and humidity controlled environment providing a 12:12 hour day-night cycle. For surgical procedures, animals were anesthetized with ketamine/xylazine. The left sciatic nerve was exposed by blunt dissection, and a 1 to 2 mm piece of this nerve was excised just below the level of the femoral head. A sham surgery was performed on the right hind limb in which the sciatic nerve was exposed but was not transected. Model 2002 Alzet pumps were implanted subcutaneously on the back. […] A pellet containing 15 mg of testosterone (Innovative Research of America, Sarasota, Fla.) administered as a continuous infusion (5 mg/wk), or a pellet containing placebo, was inserted into a subcutaneous pouch. […] Because testosterone is known to have anabolic actions (Ferrando et al., Am J Physiol Endocrinol Metab 282: E601-E607, 2002; Mauras et al., J Clin Endocrinol Metab 83: 1886-1892, 1998; Urban et al., Am J Physiol 269: E820-E826, 1995), reductions in levels of this hormone could affect muscle mass and confound interpretation of the results. Animals were euthanized 14 days later by inhalation of carbon dioxide. […]
(§2) Total RNA was extracted from skeletal muscle (20 mg) by homogenization in guanidine thiocyanate using a Polytron followed by extraction using phenol-chloroform (Chomczynski and Sacchi, Anal Biochem 162: 156-159, 1987). […] Total RNA was then eluted and quantified by absorbance at 260 nm. […] Levels of gene expression in the denervated muscle were expressed as fold induction relative to muscle from the sham-denervated leg of animals administered vehicle. […] Fold-induction was determined using the 2^−ΔΔCt method, using expression of 18S RNA as the normalization control. […]

A further experiment deals with myostatin. Nature of the experiment: Acute denervation: myostatin mRNA in EDL and soleus (qPCR). Format: in vivo, rat. As to the method: as §1, §2
(In general: Real-time PCR tracks product formation cycle by cycle.)

The next experiment deals with MuRF1. Nature of the experiment: Acute denervation: MuRF1 mRNA in EDL and soleus (qPCR). The note with it: nandrolone 1.5 mg/kg/wk 14 days. It counts as in vivo, rat. As to the method:
as §1, §2

In another experiment the test system is myogenin. Nature of the experiment: Acute denervation: myogenin mRNA in EDL and soleus (qPCR). Format: in vivo, rat. As to the method: Male Wistar rats weighing 250 gm (Taconic Farms, Germantown, N.Y.) were provided food and water ad libitum and were housed in a temperature and humidity controlled environment providing a 12:12 hour day-night cycle. For surgical procedures, animals were anesthetized with ketamine/xylazine. The left sciatic nerve was exposed by blunt dissection, and a 1 to 2 mm piece of this nerve was excised just below the level of the femoral head. A sham surgery was performed on the right hind limb in which the sciatic nerve was exposed but was not transected. Model 2002 Alzet pumps were implanted subcutaneously on the back. […] A pellet containing 15 mg of testosterone (Innovative Research of America, Sarasota, Fla.) administered as a continuous infusion (5 mg/wk), or a pellet containing placebo, was inserted into a subcutaneous pouch. […] Because testosterone is known to have anabolic actions (Ferrando et al., Am J Physiol Endocrinol Metab 282: E601-E607, 2002; Mauras et al., J Clin Endocrinol Metab 83: 1886-1892, 1998; Urban et al., Am J Physiol 269: E820-E826, 1995), reductions in levels of this hormone could affect muscle mass and confound interpretation of the results. Animals were euthanized 14 days later by inhalation of carbon dioxide. Following removal of blood from the left ventricle for determination of serum testosterone concentration by radioimmunoassay (MP Biomedicals, Costa Mesa, Calif.), soleus, extensor digitorum longus (EDL), gastrocnemius and plantaris muscles were excised and weighed, then were flash frozen on dry ice and stored at −80° C.
Total RNA was extracted from skeletal muscle (20 mg) by homogenization in guanidine thiocyanate using a Polytron followed by extraction using phenol-chloroform (Chomczynski and Sacchi, Anal Biochem 162: 156-159, 1987). Total RNA was further enriched using RNAeasy minicolumns (Qiagen, Valencia, Calif.) and treated with RNAse-free DNAse (Qiagen). Total RNA was then eluted and quantified by absorbance at 260 nm. One μg of total RNA was used to prepare a cDNA library by reverse transcription (iScirpt, Biorad, Hercules, Calif.). Libraries were diluted 1:25 with water prior to real time PCR. Real time PCR was conducted using an ABI 7500 real time PCR thermal cycler, ABI 2×PCR reagent, and ABI Taqman real time PCR probes for genes of interest. Levels of gene expression in the denervated muscle were expressed as fold induction relative to muscle from the sham-denervated leg of animals administered vehicle. […] Fold-induction was determined using the 2^−ΔΔCt method, using expression of 18S RNA as the normalization control. Primers and probes used for 18S RNA, MuRF1 and myostatin were obtained through the assays by Design service of Applied Biosystems and had the sequences are shown in Table 2; probes were 5′ labeled with FAM and 3′ modified with a non-fluorescent quencher. All other primer-probe combinations used were those contained in ABI Assay on Demand kits.

A further experiment has as its system MAFbx mRNA. Nature of the experiment: MAFbx mRNA half-life after actinomycin in C2C12.AR cells. Format: cell-based, mouse. As to the method:
(A) Rats were administered test agents as indicated in the figure for 7-days, at which time animals were sacrificed and MAFbx expression was determined in gastrocnemius muscles by qPCR. Data are mean values±SEM for at least 8 animals. * p<0.05 vs vehicle, t-test. (B) AR6 cells were seeded into 6-well plates and incubated overnight in growth medium. Medium was replaced with DMEM containing 2% horse serum followed by incubation for an additional 48 hours. Hormones or vehicle (EtOH) were added to the medium and cells were incubated overnight, at which time MAFbx mRNA levels were determined by qPCR and expressed as fold-induction versus levels in cells incubated with EtOH. Data are mean values±SEM for three determinations each performed in triplicate. * p<0.05 vs. EtOH (ANOVA). (C) Effect of testosterone on MAFbx mRNA half-life. C2C12.AR cells were incubated overnight in growth medium supplemented with testosterone or vehicle (EtOH). […] Levels of MAFbx mRNA are expressed as a percentage of those at time zero. […]
RNA was quantified by absorbance at 260 nm. […] Relative changes in expression were determined using the 2^−ΔΔCt method. Taqman Assay on Demand probes (Applied Biosystems) were used for all assays except rat 18S RNA, which was quantified using the following Assay on Demand Probes: Forward: […] […]

As for `C[C@]12CC[C@H]3[C@@H](CCC4=CC(=O)CC[C@@H]43)[C@@H]1CC[C@@H]2O` [nandrolone], the MAFbx expression result in the experiment with MAFbx (denervated EDL) is “reductions were not statistically significant”; in the experiment with MAFbx (denervated soleus), “significantly reduced”; with MAFbx (sham-denervated EDL or soleus), “did not significantly alter”. Moreover, the figures for the myostatin expression entry in the experiment on myostatin (denervated EDL), in the experiment with myostatin (sham-denervated EDL) and in the experiment on myostatin (soleus) were “appeared to reduce”, “significantly reduced” and “did not appreciably alter”, respectively. Moreover, the values for the MuRF1 expression entry with MuRF1 (denervated EDL), in the experiment on MuRF1 (denervated soleus) and with MuRF1 (sham-denervated soleus or EDL) were “significantly reduced”, “significantly decreased” and “did not significantly affect”, respectively. In the experiment on myogenin (denervated EDL, not significant), the myogenin expression entry was “tended to reduce”. In addition, the “myogenin expression as % of that in denervated muscle from placebo animals” value with myogenin (denervated soleus) was found to be 70%. In addition, the “reduction of myogenin expression” value in the experiment on myogenin (sham-denervated EDL, not significant) is 50%; in the experiment on myogenin (sham-denervated EDL, trend, not significant), 27%; with myogenin (sham-denervated soleus, did not reach significance), 50%; in the experiment on myogenin (sham-denervated soleus, trend, not significant), 48%.

Take `C[C@]12CC[C@H]3[C@@H](CCC4=CC(=O)CC[C@@]43C)[C@@H]1CC[C@@H]2O` [testosterone]: the “half-life of MAFbx mRNA versus absence of testosterone” value in the experiment on MAFbx mRNA is reported as “not significantly different”.
